Counter-ions that a name gives are not always drawn.
Experiments:
RON (human) = RON (human) (Homo sapiens, UniProt Q04912); experiment: RON kinase AlphaScreen assay (Km of ATP); type: biochemical; conditions: ATP at Km; at least duplicate experiments
Experimental: (§1) Person skilled in the art will appreciate that a variety of assay formats may be used to determine the activity of the compounds of this invention. For example, AlphaScreen (Amplified Luminescent Proximity Homogeneous Assay) technology was used with the kinases described below. Assay ATP concentrations for individual kinases are included in the text.
RON (human)—Km of ATP: RON assay is performed in a 384 well assay containing 200 ng/μL biotinylated poly(Glu,Tyr), 0.334 mM vanadate, desired concentration of ATP optimized for the enzyme in assay buffer (50 mM HEPES (pH=7.4), 12.5 mM MgCl2 and 1% glycerol). Desired compound is added in a final concentration of 1% DMSO with control being vehicle of DMSO alone. RON is diluted to the optimized (on a lot-by-lot basis) concentration in an enzyme diluent buffer (50 mM HEPES pH=7.4, 12.5 mM MgCl2 and 1% glycerol, 0.03% Brij35, 0.3 mM EGTA, lmM DTT, and 0.003% BSA). Enzyme is added to initiate the reaction and incubated for 30 min at RT. In subdued light, appropriate amount of PT66 donor and acceptor beads (diluted 1:260 from manufacturer's provision in a 25 mM Tris HCl (pH=7.5), 200 mM NaCl, 100 mM EDTA, 0.3% BSA buffer) are added to the wells. The plates, incubated for 1 h, are read on an AlphaQuest plate reader.

MET (human) = MET (human) (Homo sapiens, UniProt P08581); experiment: MET kinase AlphaScreen assay (Km of ATP); type: biochemical; conditions: ATP at Km; at least duplicate experiments
Experimental: as §1
MET (human)—Km of ATP: MET assay is performed in a 384 well assay containing 200 ng/μL biotinylated poly(Glu,Tyr), 0.334 mM vanadate, desired concentration of ATP optimized for the enzyme in assay buffer (50 mM HEPES (pH=7.4), 5 mM MgCl2, 5 mM MnCl2, and 1% glycerol). Desired compound is added in a final concentration of 1% DMSO with control being vehicle of DMSO alone. MET is diluted to the optimized concentration (optimized on a lot-by-lot basis) in an enzyme diluent buffer (50 mM Tris pH=7.4, 1% glycerol, 0.03% Brij35, 0.24 mM EGTA, 1 mM DTT, and 0.003% BSA). Enzyme is added to initiate the reaction and incubated for 60 min at RT. In subdued light, appropriate amount of PT66 donor and acceptor beads (diluted 1:260 from manufacturer's provision in a 25 mM Tris HCl (pH=7.5), 400 mM NaCl, 100 mM EDTA, 0.3% BSA buffer) are added to the wells. The plates, incubated for 1 h, are read on an AlphaQuest plate reader

Sequence of RON (human) (Q04912 25-1400): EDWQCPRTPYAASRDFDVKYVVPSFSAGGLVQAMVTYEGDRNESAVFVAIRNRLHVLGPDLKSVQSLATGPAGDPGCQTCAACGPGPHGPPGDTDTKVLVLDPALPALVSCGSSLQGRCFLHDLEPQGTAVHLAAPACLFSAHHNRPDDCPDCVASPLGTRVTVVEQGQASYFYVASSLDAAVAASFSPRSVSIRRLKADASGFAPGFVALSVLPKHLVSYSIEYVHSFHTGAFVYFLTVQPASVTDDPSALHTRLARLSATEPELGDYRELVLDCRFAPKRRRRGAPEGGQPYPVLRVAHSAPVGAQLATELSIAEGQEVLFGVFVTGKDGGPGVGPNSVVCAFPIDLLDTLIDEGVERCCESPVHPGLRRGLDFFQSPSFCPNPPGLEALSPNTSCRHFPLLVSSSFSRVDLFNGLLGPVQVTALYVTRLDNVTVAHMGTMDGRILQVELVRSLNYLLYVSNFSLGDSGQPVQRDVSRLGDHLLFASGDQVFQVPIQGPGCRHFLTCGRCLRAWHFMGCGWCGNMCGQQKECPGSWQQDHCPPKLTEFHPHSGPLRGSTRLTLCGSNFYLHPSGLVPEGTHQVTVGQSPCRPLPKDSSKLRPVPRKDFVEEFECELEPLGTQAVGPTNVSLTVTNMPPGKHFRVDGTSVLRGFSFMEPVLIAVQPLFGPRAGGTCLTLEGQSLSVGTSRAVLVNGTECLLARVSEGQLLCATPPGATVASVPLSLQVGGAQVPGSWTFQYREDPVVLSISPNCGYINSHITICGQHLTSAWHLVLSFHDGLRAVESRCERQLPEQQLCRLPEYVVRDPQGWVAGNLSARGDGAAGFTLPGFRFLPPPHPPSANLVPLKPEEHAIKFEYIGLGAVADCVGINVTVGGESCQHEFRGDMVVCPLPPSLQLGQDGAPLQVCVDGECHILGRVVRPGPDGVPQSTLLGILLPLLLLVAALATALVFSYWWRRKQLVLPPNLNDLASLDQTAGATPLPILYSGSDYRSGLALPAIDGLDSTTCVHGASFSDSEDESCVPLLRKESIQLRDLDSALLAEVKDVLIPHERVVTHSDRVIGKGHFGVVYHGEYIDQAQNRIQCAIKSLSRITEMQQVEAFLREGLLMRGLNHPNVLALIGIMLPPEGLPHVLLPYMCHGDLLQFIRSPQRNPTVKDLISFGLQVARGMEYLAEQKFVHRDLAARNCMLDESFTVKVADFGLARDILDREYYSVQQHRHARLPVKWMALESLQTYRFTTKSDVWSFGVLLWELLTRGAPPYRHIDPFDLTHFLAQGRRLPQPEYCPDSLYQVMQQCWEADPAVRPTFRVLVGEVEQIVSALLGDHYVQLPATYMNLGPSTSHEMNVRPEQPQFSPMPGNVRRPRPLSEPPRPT
Sequence of MET (human) (P08581 25-1390): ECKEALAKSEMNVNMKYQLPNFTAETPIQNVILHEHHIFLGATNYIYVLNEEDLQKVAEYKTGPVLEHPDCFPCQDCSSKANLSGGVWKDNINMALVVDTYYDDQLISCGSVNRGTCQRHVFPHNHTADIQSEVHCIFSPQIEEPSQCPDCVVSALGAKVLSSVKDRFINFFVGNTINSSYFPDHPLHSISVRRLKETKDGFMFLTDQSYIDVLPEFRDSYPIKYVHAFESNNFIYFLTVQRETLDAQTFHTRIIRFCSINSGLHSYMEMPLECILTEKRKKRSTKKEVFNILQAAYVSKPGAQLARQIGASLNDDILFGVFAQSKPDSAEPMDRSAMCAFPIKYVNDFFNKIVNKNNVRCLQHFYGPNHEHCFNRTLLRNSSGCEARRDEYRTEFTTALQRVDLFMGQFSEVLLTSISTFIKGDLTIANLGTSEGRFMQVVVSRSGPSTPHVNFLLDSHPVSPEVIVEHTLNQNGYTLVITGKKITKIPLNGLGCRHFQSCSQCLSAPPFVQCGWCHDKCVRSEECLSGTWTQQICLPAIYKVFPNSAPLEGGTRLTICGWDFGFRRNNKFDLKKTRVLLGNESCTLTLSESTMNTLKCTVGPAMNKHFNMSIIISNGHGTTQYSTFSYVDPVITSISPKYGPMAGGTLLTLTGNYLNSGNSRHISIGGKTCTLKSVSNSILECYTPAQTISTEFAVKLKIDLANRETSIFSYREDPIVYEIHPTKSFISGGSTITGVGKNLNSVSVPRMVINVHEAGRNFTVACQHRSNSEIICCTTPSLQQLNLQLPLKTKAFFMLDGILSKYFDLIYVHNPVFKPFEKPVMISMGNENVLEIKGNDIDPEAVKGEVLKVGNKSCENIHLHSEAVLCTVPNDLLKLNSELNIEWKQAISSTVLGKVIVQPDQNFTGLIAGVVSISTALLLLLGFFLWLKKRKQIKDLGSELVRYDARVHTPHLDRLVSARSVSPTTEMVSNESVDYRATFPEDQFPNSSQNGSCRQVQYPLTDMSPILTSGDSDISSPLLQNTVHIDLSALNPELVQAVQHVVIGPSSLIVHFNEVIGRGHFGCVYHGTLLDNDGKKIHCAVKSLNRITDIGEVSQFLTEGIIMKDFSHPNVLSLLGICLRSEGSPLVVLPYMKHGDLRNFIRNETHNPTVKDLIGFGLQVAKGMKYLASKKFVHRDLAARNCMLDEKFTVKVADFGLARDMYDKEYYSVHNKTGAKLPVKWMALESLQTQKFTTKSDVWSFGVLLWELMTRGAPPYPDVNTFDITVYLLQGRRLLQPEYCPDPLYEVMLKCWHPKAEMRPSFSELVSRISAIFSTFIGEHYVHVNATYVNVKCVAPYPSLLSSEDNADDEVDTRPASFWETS

IC50 (RON (human)) | IC50 (MET (human)) | Compound
100 to 1000 nM | ≤ 100 nM | Nc1ncc(-c2cnn([C@@H]3CNC(CO)C3)c2)cc1-c1nc2ccccc2s1 (mixture of isomers) [Example 180, {(S)-4-[4-(6-Amino-5-benzothiazol-2-ylpyridin-3-yl)-pyrazol-1-yl]-pyrrolidin-2-yl}-methanol]
1000 to 20000 nM | 1000 to 20000 nM | Cc1nc(-c2cc(-c3cnn(C4CCNCC4)c3)cnc2N)cc2ccccc12 [Example 1, 3-(1-Methylisoquinolin-3-yl)-5-(1-piperidin-4-yl-1H-pyrazol-4-yl)-pyridin-2-ylamine trihydrochloride]
> 20000 nM | 1000 to 20000 nM | Cc1c(-c2cc(-c3cnn(C4CCNCC4)c3)cnc2N)ncc2ccccc12 [Example 2, 3-(4-Methylisoquinolin-3-yl)-5-(1-piperidin-4-yl-1H-pyrazol-4-yl)-pyridin-2-ylamine trihydrochloride]
≤ 100 nM | ≤ 100 nM | Nc1ncc(-c2cnn(C3CCNCC3)c2)cc1-c1cc2cccc(Cl)c2cn1 [Example 3, 3-(8-Chloroisoquinolin-3-yl)-5-(1-piperidin-4-yl-1H-pyrazol-4-yl)-pyridin-2-ylamine trihydrochloride]
1000 to 20000 nM | 100 to 1000 nM | Cc1ccc2cnc(-c3cc(-c4cnn(C5CCNCC5)c4)cnc3N)cc2c1 [Example 4, 3-(6-Methylisoquinolin-3-yl)-5-(1-piperidin-4-yl-1H-pyrazol-4-yl)-pyridin-2-ylamine trihydrochloride]
100 to 1000 nM | 100 to 1000 nM | Cc1cccc2cc(-c3cc(-c4cnn(C5CCNCC5)c4)cnc3N)ncc12 [Example 5, 3-(8-Methylisoquinolin-3-yl)-5-(1-piperidin-4-yl-1H-pyrazol-4-yl)-pyridin-2-ylamine trihydrochloride]
100 to 1000 nM | 100 to 1000 nM | Cc1ccc(F)c2cnc(-c3cc(-c4cnn(C5CCNCC5)c4)cnc3N)cc12 [Example 6, 3-(8-Fluoro-5-methylisoquinolin-3-yl)-5-(1-piperidin-4-yl-1H-pyrazol-4-yl)-pyridin-2-ylamine trihydrochloride]
100 to 1000 nM | ≤ 100 nM | Nc1ncc(-c2cnn(C3CCNCC3)c2)cc1-c1cc2c(Br)ccc(F)c2cn1 [Example 7, 3-(5-Bromo-8-fluoroisoquinolin-3-yl)-5-(1-piperidin-4-yl-1H-pyrazol-4-yl)-pyridin-2-ylamine trihydrochloride]
1000 to 20000 nM | 1000 to 20000 nM | Nc1ncc(-c2cnn(C3CCNCC3)c2)cc1-c1ncc2ccccc2c1F [Example 8, 3-(4-Fluoroisoquinolin-3-yl)-5-(1-piperidin-4-yl-1H-pyrazol-4-yl)-pyridin-2-ylamine trihydrochloride]
100 to 1000 nM | ≤ 100 nM | Nc1ncc(-c2cnn(C3CCNCC3)c2)cc1-c1cc2c(Cl)ccc(Cl)c2cn1 [Example 9, 3-(5,8-Dichloroisoquinolin-3-yl)-5-(1-piperidin-4-yl-1H-pyrazol-4-yl)-pyridin-2-ylamine trihydrochloride]
1000 to 20000 nM | 100 to 1000 nM | Nc1ncc(-c2cnn(C3CCNCC3)c2)cc1-c1cc2c(F)ccc(F)c2cn1 [Example 10, 3-(5,8-Difluoroisoquinolin-3-yl)-5-(1-piperidin-4-yl-1H-pyrazol-4-yl)-pyridin-2-ylamine trihydrochloride]
100 to 1000 nM | ≤ 100 nM | Nc1ncc(-c2cnn(C3CCNCC3)c2)cc1-c1cc2c(Cl)ccc(F)c2cn1 [Example 11, 3-(5-Chloro-8-fluoroisoquinolin-3-yl)-5-(1-piperidin-4-yl-1H-pyrazol-4-yl)-pyridin-2-ylamine trihydrochloride]
1000 to 20000 nM | 100 to 1000 nM | COc1ccc(Cl)c2cc(-c3cc(-c4cnn(C5CCNCC5)c4)cnc3N)ncc12 [Example 12, 4-{4-[6-Amino-5-(5-chloro-8-methoxyisoquinolin-3-yl)-pyridin-3-yl]-pyrazol-1-yl}-piperidine trihydrochloride]
1000 to 20000 nM | 100 to 1000 nM | Nc1ncc(-c2cnn(C3CCNCC3)c2)cc1-c1cc2ccccc2cn1 [Example 13, 3-Isoquinolin-3-yl-5-(1-piperidin-4-yl-1H-pyrazol-4-yl)-pyridin-2-ylamine trihydrochloride]
1000 to 20000 nM | 1000 to 20000 nM | Nc1ncc(-c2cnn(C3CCNCC3)c2)cc1-c1cc2ccc(OC(F)(F)F)cc2cn1 [Example 14, 5-(1-Piperidin-4-yl-1H-pyrazol-4-yl)-3-(7-trifluoromethoxy-isoquinolin-3-yl)-pyridin-2-ylamine trihydrochloride]
100 to 1000 nM | ≤ 100 nM | Nc1ncc(-c2cnn(C3CCNCC3)c2)cc1-c1cc2c(Cl)c(F)cc(F)c2cn1 [Example 15, 3-(5-Chloro-6,8-difluoroisoquinolin-3-yl)-5-(1-piperidin-4-yl-1H-pyrazol-4-yl)-pyridin-2-ylamine trihydrochloride salt]
100 to 1000 nM | 100 to 1000 nM | Nc1ncc(-c2cnn(C3CCNCC3)c2)cc1-c1cc2cc(C(F)(F)F)ccc2cn1 [Example 16, 5-(1-Piperidin-4-yl-1H-pyrazol-4-yl)-3-(6-trifluoromethylisoquinolin-3-yl)-pyridin-2-ylamine trihydrochloride salt]
100 to 1000 nM | 100 to 1000 nM | Nc1ncc(-c2cnn(C3CCNCC3)c2)cc1-c1cc2ccc(C(F)(F)F)cc2cn1 [Example 17, 5-(1-Piperidin-4-yl-1H-pyrazol-4-yl)-3-(7-trifluoromethylisoquinolin-3-yl)-pyridin-2-ylamine tri-hydrochloride salt]
100 to 1000 nM | 100 to 1000 nM | Nc1ncc(-c2cnn(C3CCNCC3)c2)cc1-c1cc2c(C(F)(F)F)cccc2cn1 [Example 18, 5-(1-Piperidin-4-yl-1H-pyrazol-4-yl)-3-(5-trifluoromethylisoquinolin-3-yl)-pyridin-2-ylamine trihydrochloride salt]
100 to 1000 nM | 100 to 1000 nM | Nc1ncc(-c2cnn(C3CCNCC3)c2)cc1-c1cc2cccc(C(F)(F)F)c2cn1 [Example 19, 5-(1-Piperidin-4-yl-1H-pyrazol-4-yl)-3-(8-trifluoromethylisoquinolin-3-yl)-pyridin-2-ylamine trihydrochloride salt]
100 to 1000 nM | 100 to 1000 nM | Cc1ccc(C)c2cc(-c3cc(-c4cnn(C5CCNCC5)c4)cnc3N)ncc12 [Example 20, 3-(5,8-Dimethylisoquinolin-3-yl)-5-(1-piperidin-4-yl-1H-pyrazol-4-yl)-pyridin-2-ylamine trihydrochloride salt]
1000 to 20000 nM | 100 to 1000 nM | Nc1ncc(-c2cnn(C3CCNCC3)c2)cc1-c1cc2ccc(Br)cc2cn1 [Example 21, 3-(7-Bromoisoquinolin-3-yl)-5-(1-piperidin-4-yl-1H-pyrazol-4-yl)-pyridin-2-ylamine trihydrochloride salt]
1000 to 20000 nM | 100 to 1000 nM | Nc1ncc(-c2cnn(C3CCNCC3)c2)cc1-c1cc2c(Br)cccc2cn1 [Example 22, 3-(5-Bromoisoquinolin-3-yl)-5-(1-piperidin-4-yl-1H-pyrazol-4-yl)-pyridin-2-ylamine trihydrochloride salt]
100 to 1000 nM | 100 to 1000 nM | Nc1ncc(-c2cnn(C3CCNCC3)c2)cc1-c1cc2cc(Br)ccc2cn1 [Example 23, 3-(6-Bromoisoquinolin-3-yl)-5-(1-piperidin-4-yl-1H-pyrazol-4-yl)-pyridin-2-ylamine trihydrochloride salt]
100 to 1000 nM | 100 to 1000 nM | Nc1ncc(-c2cnn(C3CCNCC3)c2)cc1-c1cc2cccc(Br)c2cn1 [Example 24, 3-(8-Bromoisoquinolin-3-yl)-5-(1-piperidin-4-yl-1H-pyrazol-4-yl)-pyridin-2-ylamine trihydrochloride salt]
100 to 1000 nM | 100 to 1000 nM | Nc1ncc(-c2cnn(C3CCNCC3)c2)cc1-c1cc2cc(-c3ccccc3)ccc2cn1 [Example 25, 3-(6-Phenylisoquinolin-3-yl)-5-(1-piperidin-4-yl-1H-pyrazol-4-yl)-pyridin-2-ylamine tri-hydrochloride salt]
100 to 1000 nM | 100 to 1000 nM | Nc1ncc(-c2cnn(C3CCNCC3)c2)cc1-c1cc2ccc(-c3ccccc3)cc2cn1 [Example 26, 3-(7-Phenylisoquinolin-3-yl)-5-(1-piperidin-4-yl-1H-pyrazol-4-yl)-pyridin-2-ylamine tri-hydrochloride salt]

Reference: US8178668B2, “2-aminopyridine kinase inhibitors” (OSI Pharmaceuticals, LLC, priority 2008, dated 2012)
